Assay results as given in PMC6053381, “Novel 2-phenyloxypyrimidine derivative induces apoptosis and autophagy via inhibiting PI3K pathway and activating MAPK/ERK signaling in hepatocellular carcinoma cells” (Scientific Reports, 2018).

How the values were obtained:
PDGFRα = PDGFRα (Homo sapiens, UniProt P16234); assay: PDGFR kinase assay, Caliper microfluidic mobility shift; assay type: biochemical; conditions: compound at 1 µM; averages of two separate experiments
Experimental: (§1) In vitro inhibitory activities of all compounds at 1 μM against PDGFRα and PDGFRβ were evaluated using Caliper microfluidic mobility shift technology. […] At the same concentration, only E5 inhibited greater than 50% of PDGFRβ activity (Fig. 2B).
(§2) PDGFR kinase activity was measured using Caliper microfluidic mobility shift technology. Briefly, 2 μL compound solution (25 μM) in 25% DMSO per well were added into the 384 well microtiter plates. Then, 10 μL per well of enzyme solution (100 mM HEPES, 10 mM MgCl2, Brij35 (30%) 100 μL, 1 mM DTT, 20 ng enzyme) was added. After a brief centrifugation at 1,000 rpm, the kinase reactions were started by addition of 38 μL per well of peptide/ATP-solution (40 μM ATP, 6.5 μM peptide 5′-FAM-KKKKEEIYFFF-NH2, Tris-HCl buffer, pH 7.0) incubated at 30 °C for 60 min and stopped by the addition of 20 μL 35 mM EDTA per well. The electrophoretic separation of the phosphorylated and non-phosphorylated peptides was then carried out on LabChip EZ Reader II (Caliper Life Sciences). All other kinase reactions were carried out as previously reported using the Kinase-Glo Plus or ADP-Glo assay. Kinase inhibition rates were calculated per manufacturer’s instructions.

PDGFRβ = PDGFRβ (Homo sapiens, UniProt P09619); assay: as above; assay type: biochemical; conditions: compound at 1 µM; averages of two separate experiments
PDGFRβ, sequence (P09619 33-1106): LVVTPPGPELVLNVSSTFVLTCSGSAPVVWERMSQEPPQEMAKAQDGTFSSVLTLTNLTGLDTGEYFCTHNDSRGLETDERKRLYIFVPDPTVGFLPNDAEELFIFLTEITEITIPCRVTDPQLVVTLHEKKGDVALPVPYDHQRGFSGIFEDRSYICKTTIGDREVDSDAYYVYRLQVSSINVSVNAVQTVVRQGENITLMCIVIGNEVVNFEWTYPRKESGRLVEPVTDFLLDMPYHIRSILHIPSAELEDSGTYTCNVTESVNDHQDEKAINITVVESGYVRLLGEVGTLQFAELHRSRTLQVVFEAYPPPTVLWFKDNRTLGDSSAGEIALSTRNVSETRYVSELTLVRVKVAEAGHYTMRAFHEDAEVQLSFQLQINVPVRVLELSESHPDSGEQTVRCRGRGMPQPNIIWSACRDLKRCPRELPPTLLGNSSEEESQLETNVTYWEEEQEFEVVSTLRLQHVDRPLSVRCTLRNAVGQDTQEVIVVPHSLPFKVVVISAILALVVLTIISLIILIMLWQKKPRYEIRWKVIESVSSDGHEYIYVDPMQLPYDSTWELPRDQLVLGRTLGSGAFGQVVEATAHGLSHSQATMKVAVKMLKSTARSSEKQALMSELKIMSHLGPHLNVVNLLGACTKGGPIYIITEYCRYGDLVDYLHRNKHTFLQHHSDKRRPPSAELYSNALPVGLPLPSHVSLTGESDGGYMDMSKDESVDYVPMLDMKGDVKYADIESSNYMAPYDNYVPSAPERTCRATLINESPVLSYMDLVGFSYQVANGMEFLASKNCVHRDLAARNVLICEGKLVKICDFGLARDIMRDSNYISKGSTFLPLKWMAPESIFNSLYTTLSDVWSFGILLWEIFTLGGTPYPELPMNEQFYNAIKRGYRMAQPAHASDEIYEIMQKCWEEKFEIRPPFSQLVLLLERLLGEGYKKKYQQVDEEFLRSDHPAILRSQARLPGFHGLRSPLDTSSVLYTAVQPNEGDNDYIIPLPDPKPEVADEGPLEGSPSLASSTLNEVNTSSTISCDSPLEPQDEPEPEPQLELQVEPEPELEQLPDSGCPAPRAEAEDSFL
Experimental: as §1, §2

MHCC97-L = assay: CellTiter-Glo luminescent cell viability assay; assay type: cell-based; conditions: 120 h incubation, read-out: Anti-proliferative activity IC50 MHCC97-L
Text: (§3) The in vitro antitumor activity of all compounds was screened against six HCC cell lines by CellTiter-Glo luminescent cell viability assay as described earlier. […] After a comprehensive assessment of PDGFR inhibition, cellular activity against HCC cells as well as potential druggability, E5 was chosen to investigate its kinase profiling, antitumor activity and molecular mechanism in the following study. […]
(§4) authenticated by using short tandem repeat (STR) matching analysis. No mycoplasma contamination was detected.
(§5) CellTiter-Glo luminescent cell viability assay
(§6) For experiments hepatocellular carcinoma cells were seeded at 4000 cells per well in 96-well plates. After overnight incubation, solution of compounds in DMSO at various concentrations were added to the cells and further incubated for 120 h. Cell viability was measured with the CellTiter-Glo Luminescent Cell Viability Assay (Promega) according to the manufacturer’s instructions. Luminescence was measured using an EnVision Multilabel Plate Reader (Perkin-Elmer). The cytotoxicity of the compounds was expressed as the percent age of luminescence relative to that of untreated cells . The concentration of compound producing 50% of cell proliferation (IC50) was calculated by nonlinear regression analysis of the response-concentration (log) curve, using the Graph-Pad Prism program package (Graph Pad Software; San Diego, CA). Results are expressed as the means of two […] experiments

SMMC-7721 = assay: CellTiter-Glo luminescent cell viability assay; assay type: cell-based; conditions: 120 h incubation, read-out: Anti-proliferative activity IC50 SMMC-7721
Text: as §3, §4, §5, §6

BEL7404 = assay: CellTiter-Glo luminescent cell viability assay; assay type: cell-based; conditions: 120 h incubation, read-out: Anti-proliferative activity IC50 BEL7404
Text: as §3, §4, §5, §6

QGY-7703 = assay: CellTiter-Glo luminescent cell viability assay; assay type: cell-based; conditions: 120 h incubation, read-out: Anti-proliferative activity IC50 QGY-7703
Text: as §3, §4, §5, §6

Hep3B = assay: CellTiter-Glo luminescent cell viability assay; assay type: cell-based; conditions: 120 h incubation, read-out: Anti-proliferative activity IC50 Hep3B
Text: as §3, §4, §5, §6

SNU368 = assay: CellTiter-Glo luminescent cell viability assay; assay type: cell-based; conditions: 120 h incubation, read-out: Anti-proliferative activity IC50 SNU368
Text: as §3, §4, §5, §6

PDGFRα, sequence (P16234 24-1089): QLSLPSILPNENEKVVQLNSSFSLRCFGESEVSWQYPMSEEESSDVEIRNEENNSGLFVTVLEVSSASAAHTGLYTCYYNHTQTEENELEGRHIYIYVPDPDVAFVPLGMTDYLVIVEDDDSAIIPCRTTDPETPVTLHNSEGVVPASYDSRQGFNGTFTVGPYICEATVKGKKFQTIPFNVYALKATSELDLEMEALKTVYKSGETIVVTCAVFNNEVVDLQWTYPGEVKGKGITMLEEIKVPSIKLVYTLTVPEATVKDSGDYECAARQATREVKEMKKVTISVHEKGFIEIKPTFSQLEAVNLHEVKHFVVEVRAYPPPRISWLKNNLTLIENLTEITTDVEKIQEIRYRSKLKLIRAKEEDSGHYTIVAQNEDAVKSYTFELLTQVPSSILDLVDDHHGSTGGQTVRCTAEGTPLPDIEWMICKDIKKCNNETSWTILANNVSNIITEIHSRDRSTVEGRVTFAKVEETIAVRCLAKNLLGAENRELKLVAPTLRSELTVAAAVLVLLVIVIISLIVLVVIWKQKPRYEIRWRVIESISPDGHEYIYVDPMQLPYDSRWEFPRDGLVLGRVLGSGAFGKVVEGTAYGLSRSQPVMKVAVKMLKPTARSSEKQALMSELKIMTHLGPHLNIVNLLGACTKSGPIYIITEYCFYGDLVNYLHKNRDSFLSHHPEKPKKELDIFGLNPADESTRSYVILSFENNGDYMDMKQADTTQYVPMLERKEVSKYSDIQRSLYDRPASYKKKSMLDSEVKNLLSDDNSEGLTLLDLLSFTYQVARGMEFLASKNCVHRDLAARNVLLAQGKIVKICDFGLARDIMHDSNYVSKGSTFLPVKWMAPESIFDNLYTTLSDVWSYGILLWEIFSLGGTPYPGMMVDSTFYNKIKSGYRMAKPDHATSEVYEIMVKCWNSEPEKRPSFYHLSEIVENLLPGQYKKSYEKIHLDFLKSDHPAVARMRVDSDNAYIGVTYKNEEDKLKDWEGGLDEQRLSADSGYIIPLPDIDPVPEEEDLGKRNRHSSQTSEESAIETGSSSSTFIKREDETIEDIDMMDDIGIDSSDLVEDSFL

Structure (SMILES) | Inhibition effect (%) PDGFRα (PDGFRα) [%] | Inhibition effect (%) PDGFRβ (PDGFRβ) [%] | IC50 (MHCC97-L) [µM] | IC50 (SMMC-7721) [µM] | IC50 (BEL7404) [µM] | IC50 (QGY-7703) [µM] | IC50 (Hep3B) [µM] | IC50 (SNU368) [µM]
Cc1ccc(NC(=O)c2ccc(Cl)cc2)cc1Oc1nccc(-c2ccccc2)n1 [B6] | 12.21 | 18.64 | 10.5 | 9.7 | 13.4 | 15.4 | 7.9 | 15
Cc1ccc(NC(=O)c2cccc(Cl)c2)cc1Oc1nccc(-c2ccccc2)n1 [B7] | 31.49 | 16.63 | > 200 | 17 | 18.3 | 25.8 | 15.5 | 14
Cc1ccc(NC(=O)c2ccc([N+](=O)[O-])cc2)cc1Oc1nccc(-c2ccccc2)n1 [B8] | 26.17 | 37.71 | 14 | 7.5 | 9.9 | 14.4 | 9 | 12
Cc1ccc(NC(=O)c2cccc([N+](=O)[O-])c2)cc1Oc1nccc(-c2ccccc2)n1 [B9] | 21.34 | 19.14 | > 200 | 13.8 | 12.9 | 19.2 | 83.2 | 16.8
Cc1ccc(NC(=O)c2ccc(F)cc2)cc1Oc1nccc(-c2ccccc2)n1 [B10] | 19.57 | 15.63 | 6.3 | 3.9 | 8.1 | 10.9 | 5.8 | 12.6
Cc1ccc(NC(=O)c2cccnc2)cc1Oc1nccc(-c2ccccc2)n1 [B11] | 32.00 | 5.08 | 53.5 | 20.2 | 21.6 | 81.1 | 44.2 | 18
Cc1ccc(NC(=O)c2ccncc2)cc1Oc1nccc(-c2ccccc2)n1 [B12] | 25.66 | 20.65 | 44 | 8.8 | 13.4 | 27.6 | 17.7 | 18
CC(=O)Nc1ccc(C)c(Oc2nccc(-c3cccc4ccccc34)n2)c1 [C1] | 33.27 | 1.32 | 109 | 21 | 36.2 | 91.6 | 32 | 43
CCC(=O)Nc1ccc(C)c(Oc2nccc(-c3cccc4ccccc34)n2)c1 [C2] | 33.78 | 2.07 | 111 | 29.5 | 48.2 | 120 | 36.3 | 55.9
Cc1ccc(NC(=O)c2ccco2)cc1Oc1nccc(-c2cccc3ccccc23)n1 [C3] | 46.46 | 11.61 | 91 | 27.2 | 39.7 | 70.7 | 33.5 | 37.9
Cc1ccc(NC(=O)c2ccoc2)cc1Oc1nccc(-c2cccc3ccccc23)n1 [C4] | 13.73 | 2.83 | 96.4 | 12 | 8.8 | 14.9 | 22.9 | 15.8
Cc1ccc(NC(=O)c2cccs2)cc1Oc1nccc(-c2cccc3ccccc23)n1 [C5] | 16.27 | 5.08 | 28 | 16.8 | 20.8 | 35.2 | 17 | 28.4
Cc1ccc(NC(=O)c2ccc(Cl)cc2)cc1Oc1nccc(-c2cccc3ccccc23)n1 [C6] | 24.14 | -0.94 | > 200 | 14.3 | 6.7 | 19.2 | 19.7 | 17.2
Cc1ccc(NC(=O)c2ccccc2)cc1Oc1nccc(-c2ccco2)n1 [D1] | 13.74 | 28.93 | 1.6 | 1.5 | 48.7 | 2.5 | 11.4 | 37.3
Cc1ccc(NC(=O)Cc2ccccc2)cc1Oc1nccc(-c2ccco2)n1 [D2] | 36.82 | 46.75 | 26.4 | 21.6 | 32.8 | 42.2 | 28.3 | 43.8
COc1ccc(C(=O)Nc2ccc(C)c(Oc3nccc(-c4ccco4)n3)c2)cc1 [D3] | 22.61 | 37.72 | 8.5 | 7.9 | 17.6 | 15.7 | 9.7 | 22.2
Cc1cccc(C(=O)Nc2ccc(C)c(Oc3nccc(-c4ccco4)n3)c2)c1 [D4] | 45.70 | 46.00 | 3.4 | 3.7 | 4.5 | 7.5 | 6 | 23.2
Cc1ccc(NC(=O)c2cccc(Cl)c2)cc1Oc1nccc(-c2ccco2)n1 [D5] | 51.79 | 43.49 | 14.7 | 12.4 | 12.4 | 22.5 | 11.2 | 24
